These are literature values, as cited in US11318142B2, “Pharmaceutical formulation for use in the treatment of depressive and anxiety disorders” (priority 2018, dated 2022).

The conditions of this series: in vivo.

Broadly, the half-life is the time needed for the level to fall by half in the phase considered. `OCCN1CCN(CCCN2c3ccccc3C=Cc3ccccc32)CC1` [opipramol, 4-[3-(5H-dibenz[b,f]azepine-5-yl)propyl]-1-piperazinethanol]: the half-life was 6 to 11 h.

Regarding `COc1ccc(C(CN(C)C)C2(O)CCCCC2)cc1` (racemic) [venlafaxine, (RS)-1-[2-dimethylamino-1-(4-methoxyphenyl)-ethyl]cyclohexanol], the half-life was around 7 h.
